Laboratory results reported in publication PMC10053770, “Assessment of the Pharmacokinetics, Disposition, and Duration of Action of the Tumour-Targeting Peptide CEND-1” (International Journal of Molecular Sciences, 2023).

Columns and labels:
[1] = Single-dose intravenous pharmacokinetics in dogs; format: in vivo, dog; details: for clearance: read-out: Cl_obs (converted); for Vd: read-out: V
Experimental: (§1) The in vivo pharmacokinetic profile of CEND-1 after a single dose was evaluated in four non-GLP animal studies including Sprague-Dawley rats, Beagle dogs, cynomolgus monkeys and BALB/c mice following the intravenous injection of CEND-1 at various doses ([…]; 1.5, 4.5 and 13.5 mg/kg for mice) (Table 1). Blood samples were collected for pharmacokinetic evaluations pre-dose and at 1, 5, 10, 15 and 30 min, and 1, 2 and 6 h post-dose in rats, dogs and monkeys, and 3, 10, 30 and 90 min, and 4 and 8 h post-dose in mice.
(§2) Plasma CEND-1 was quantified by validated liquid chromatography coupled with a tandem mass spectrometry (LC/MS/MS) assay. Tolbutamide or leuprorelin acetate were used as internal standards. AB Sciex Triple Quad API 5500 (Sciex, Framingham, MA, USA), operated in the positive electrospray ionization (ESI) mode, was used to monitor the precursor to production ion transitions of m/z 495.4→69.9.
(§3) No formal sample size calculation was performed. Samples of 2–12 animals and 31 pancreatic cancer patients were considered acceptable to perform initial pharmacokinetic evaluations. The concentrations of CEND-1 were used to calculate PK parameters by employing a non-compartmental analysis (Phoenix^TM WinNonlin, version 6.1). The linear log trapezoidal algorithm, with a weighting of 1/Y*Y was used for parameter calculations. Mean PK parameters were calculated from individual animals in each treatment group. Concentrations below the LLOQ (if any) were excluded for the calculation of PK parameters. The mean values of PK parameters were calculated using Microsoft Excel version 2010.

[2] = Single-dose intravenous pharmacokinetics in rats; format: in vivo, rat; details: for Vd: read-out: V; for clearance: read-out: Cl_obs (converted)
Experimental: as §1, §2, §3

[3] = Single-dose intravenous pharmacokinetics in cynomolgus monkeys; format: in vivo; details: cynomolgus monkey; for clearance: read-out: Cl_obs (converted); for Vd: read-out: V
Experimental: The in vivo pharmacokinetic profile of CEND-1 after a single dose was evaluated in four non-GLP animal studies including Sprague-Dawley rats, Beagle dogs, cynomolgus monkeys and BALB/c mice following the intravenous injection of CEND-1 at various doses (1, 5 and 50 mg/kg for rats, dogs and monkeys; 1.5, 4.5 and 13.5 mg/kg for mice) (Table 1). Blood samples were collected for pharmacokinetic evaluations pre-dose and at 1, 5, 10, 15 and 30 min, and 1, 2 and 6 h post-dose in rats, dogs and monkeys, and 3, 10, 30 and 90 min, and 4 and 8 h post-dose in mice.
as §2, §3

[4] = Detailed clinical and cage-side observations in pre-clinical species; format: in vivo, mice, rats, dogs and monkeys; details: any of the pre-clinical species tested, single IV dose
[5] = Beagle dog, F, n=3, 5 mg/kg single IV, plasma LC/MS/MS, non-compartmental, mean (SD)
[6] = Beagle dog, F, n=5, 75 mg/kg single IV, plasma LC/MS/MS, non-compartmental, mean (SD)
[7] = female, Beagle dog, F, n=3, 1 mg/kg single IV, plasma LC/MS/MS, non-compartmental, mean (SD)
[8] = female, Beagle dog, F, n=5, 75 mg/kg single IV, plasma LC/MS/MS, non-compartmental, mean (SD)
[9] = male, Beagle dog, M, n=3, 1 mg/kg single IV, plasma LC/MS/MS, non-compartmental, mean (SD)
[10] = male, Beagle dog, M, n=3, 5 mg/kg single IV, plasma LC/MS/MS, non-compartmental, mean (SD)
[11] = male, Beagle dog, M, n=5, 75 mg/kg single IV, plasma LC/MS/MS, non-compartmental, mean (SD)
[12] = female, Sprague-Dawley rat, F, n=6, 1 mg/kg single IV, plasma LC/MS/MS, non-compartmental, one time point per animal
[13] = female, Sprague-Dawley rat, F, n=6, 5 mg/kg single IV, plasma LC/MS/MS, non-compartmental, one time point per animal
[14] = female, Sprague-Dawley rat, F, n=6, 75 mg/kg single IV, plasma LC/MS/MS, non-compartmental, one time point per animal
[15] = female, Sprague-Dawley rat, F, n=6, single IV, plasma LC/MS/MS, non-compartmental, one time point per animal
[16] = male, Sprague-Dawley rat, M, n=6, 1 mg/kg single IV, plasma LC/MS/MS, non-compartmental, one time point per animal
[17] = male, Sprague-Dawley rat, M, n=6, 5 mg/kg single IV, plasma LC/MS/MS, non-compartmental, one time point per animal
[18] = male, Sprague-Dawley rat, M, n=6, 75 mg/kg single IV, plasma LC/MS/MS, non-compartmental, one time point per animal
[19] = male, Sprague-Dawley rat, M, n=6, single IV, plasma LC/MS/MS, non-compartmental, one time point per animal
[20] = male, M, n=3, 5 mg/kg single IV, plasma LC/MS/MS, non-compartmental, mean (SD)
[21] = male, M, n=3, 50 mg/kg single IV, plasma LC/MS/MS, non-compartmental, mean (SD)

t1/2 ([1]; Beagle dog, F, n=3, 1 mg/kg single IV, plasma LC/MS/MS, non-compartmental, mean (SD)): 0.668 (0.0312) h
AUC(0-inf) [1, 5]: 20,443 (2530) h*ng/mL
Cl_obs [1, 5]: 247 (32.9) mL/hr/kg
V [1, 5]: 230 (14.6) mL/kg
t1/2 [1, 5]: 0.648 (0.0486) h
AUC(0-inf) [1, 6]: 323,936 (25,283) h*ng/mL
t1/2 [1, 6]: 0.620 (0.0439) h
half-life ([1]; Beagle, dog, plasma, dogs, single intravenous dose, read-out: average half-life): ~40 min
C0 [1, 7]: 4780 ng/mL
AUC(0-inf) ([1]; female, Beagle dog, F, n=3, 1 mg/kg single IV, plasma LC/MS/MS, non-compartmental, mean (SD), read-out: AUC0-inf): 3950 ng·h/mL
clearance [1, 7]: 4.25 mL/min/kg
Vd [1, 7]: 0.253 L/kg
C0 ([1]; female, Beagle dog, F, n=3, 5 mg/kg single IV, plasma LC/MS/MS, non-compartmental, mean (SD)): 25100 ng/mL
C0 [1, 8]: 476000 ng/mL
clearance [1, 8]: 3.88 mL/min/kg
Vd [1, 8]: 0.208 L/kg
C0 [1, 9]: 6010 ng/mL
AUC(0-inf) ([1]; male, Beagle dog, M, n=3, 1 mg/kg single IV, plasma LC/MS/MS, non-compartmental, mean (SD), read-out: AUC0-inf): 4030 ng·h/mL
clearance [1, 9]: 4.22 mL/min/kg
Vd [1, 9]: 0.241 L/kg
half-life ([1]; male, Beagle dog, M, n=3, 1 mg/kg single IV, plasma LC/MS/MS, non-compartmental, mean (SD), read-out: t1/2 (converted)): 39.9 min
C0 [1, 10]: 30200 ng/mL
AUC(0-inf) ([1]; male, Beagle dog, M, n=3, 5 mg/kg single IV, plasma LC/MS/MS, non-compartmental, mean (SD), read-out: AUC0-inf): 20600 ng·h/mL
clearance [1, 10]: 4.05 mL/min/kg
Vd [1, 10]: 0.23 L/kg
half-life ([1]; male, Beagle dog, M, n=3, 5 mg/kg single IV, plasma LC/MS/MS, non-compartmental, mean (SD), read-out: t1/2 (converted)): 39.3 min
C0 [1, 11]: 461000 ng/mL
AUC(0-inf) ([1]; male, Beagle dog, M, n=5, 75 mg/kg single IV, plasma LC/MS/MS, non-compartmental, mean (SD), read-out: AUC0-inf): 327000 ng·h/mL
clearance [1, 11]: 3.83 mL/min/kg
Vd [1, 11]: 0.204 L/kg
half-life ([1]; male, Beagle dog, M, n=5, 75 mg/kg single IV, plasma LC/MS/MS, non-compartmental, mean (SD), read-out: t1/2 (converted)): 36.9 min
Cl_obs ([2]; Sprague-Dawley rat, F, n=6, 1 mg/kg single IV, plasma LC/MS/MS, non-compartmental, one time point per animal): 9.37 mL/min/kg
half-life ([2]; Sprague-Dawley, rat, plasma, rats, single intravenous dose, read-out: average half-life): ~30 min
AUC(0-inf) [2, 12]: 1750 ng·h/mL
C0 [2, 12]: 3980 ng/mL
Vd [2, 12]: 0.201 L/kg
half-life ([2]; female, Sprague-Dawley rat, F, n=6, 1 mg/kg single IV, plasma LC/MS/MS, non-compartmental, one time point per animal, read-out: t1/2 (converted)): 14.9 min
AUC(0-inf) [2, 13]: 9750 ng·h/mL
C0 [2, 13]: 28400 ng/mL
clearance [2, 13]: 8.55 mL/min/kg
Vd [2, 13]: 0.323 L/kg
half-life ([2]; female, Sprague-Dawley rat, F, n=6, 5 mg/kg single IV, plasma LC/MS/MS, non-compartmental, one time point per animal, read-out: t1/2 (converted)): 26.2 min
AUC(0-inf) [2, 14]: 166000 ng·h/mL
Vd [2, 14]: 0.254 L/kg
half-life ([2]; female, Sprague-Dawley rat, F, n=6, 75 mg/kg single IV, plasma LC/MS/MS, non-compartmental, one time point per animal, read-out: t1/2 (converted)): 23.5 min
C0 [2, 15]: 436000 ng/mL
clearance [2, 15]: 7.52 mL/min/kg
AUC(0-inf) [2, 16]: 1770 ng·h/mL
C0 [2, 16]: 4230 ng/mL
clearance [2, 16]: 9.3 mL/min/kg
Vd [2, 16]: 0.64 L/kg
half-life ([2]; male, Sprague-Dawley rat, M, n=6, 1 mg/kg single IV, plasma LC/MS/MS, non-compartmental, one time point per animal, read-out: t1/2 (converted)): 48.3 min
AUC(0-inf) [2, 17]: 9060 ng·h/mL
C0 [2, 17]: 24300 ng/mL
clearance [2, 17]: 9.2 mL/min/kg
Vd [2, 17]: 0.366 L/kg
half-life ([2]; male, Sprague-Dawley rat, M, n=6, 5 mg/kg single IV, plasma LC/MS/MS, non-compartmental, one time point per animal, read-out: t1/2 (converted)): 27.6 min
AUC(0-inf) [2, 18]: 215000 ng·h/mL
Vd [2, 18]: 0.171 L/kg
half-life ([2]; male, Sprague-Dawley rat, M, n=6, 75 mg/kg single IV, plasma LC/MS/MS, non-compartmental, one time point per animal, read-out: t1/2 (converted)): 20.5 min
C0 [2, 19]: 469000 ng/mL
clearance [2, 19]: 5.8 mL/min/kg
half-life ([3]; plasma, male cynomolgus monkeys, IV 5 and 50 mg/kg, read-out: average half-life): ~55 min
AUC(0-inf) [3, 20]: 28200 ng·h/mL
C0 [3, 20]: 55100 ng/mL
clearance [3, 20]: 2.98 mL/min/kg
Vd [3, 20]: 0.204 L/kg
half-life ([3]; male, M, n=3, 5 mg/kg single IV, plasma LC/MS/MS, non-compartmental, mean (SD), read-out: t1/2 (converted)): 53.3 min
AUC(0-inf) [3, 21]: 421000 ng·h/mL
C0 [3, 21]: 602000 ng/mL
clearance [3, 21]: 2.97 mL/min/kg
Vd [3, 21]: 0.162 L/kg
half-life ([3]; male, M, n=3, 50 mg/kg single IV, plasma LC/MS/MS, non-compartmental, mean (SD), read-out: t1/2 (converted)): 57.4 min
detailed clinical observations and cage-side observations [4]: no test-article-related abnormalities
Structure (SMILES): CC(=O)N[C@H]1CSSC[C@@H](C(N)=O)NC(=O)[C@H](CC(=O)O)NC(=O)[C@@H]2CCCN2C(=O)CNC(=O)[C@H](CCCCN)NC(=O)[C@H](CC(=O)O)NC(=O)CNC(=O)[C@H](CCCNC(=N)N)NC1=O [CEND-1]
